Measurements reported in PubChem BioAssay (NCI).
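Five concentrations, 48 hours, 96-well plates. GI50: concentration for 50% inhibition of growth. TGI: concentration producing complete growth inhibition.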

Legend:
Assay in all cases: inhibition of tumour cell growth, NCI panel, 48 h; in the data active = GI50 below about 0.43 µM; inactive = the rest
MOLT-4 leukemia = system: MOLT-4 leukemia
HOP-62 NSCLC = system: HOP-62 NSCLC
PC-3 prostate = system: PC-3 prostate
MDA-MB-231 breast = system: MDA-MB-231 breast
LOX IMVI melanoma = system: LOX IMVI melanoma
OVCAR-5 ovarian = system: OVCAR-5 ovarian
786-0 renal = system: 786-0 renal
NCI-H226 lung = system: NCI-H226 lung
COLO 205 colon = system: COLO 205 colon
MALME-3M melanoma = system: MALME-3M melanoma
NCI-H460 lung = system: NCI-H460 lung
CCRF-CEM leukemia = system: CCRF-CEM leukemia
KM12 colon = system: KM12 colon
SR leukemia = system: SR leukemia
IGROV1 ovarian = system: IGROV1 ovarian
HS 578T breast = system: HS 578T breast
NCI-H522 lung = system: NCI-H522 lung
SK-MEL-5 melanoma = system: SK-MEL-5 melanoma
DU-145 prostate = system: DU-145 prostate
SNB-19 CNS = system: SNB-19 CNS
NCI/ADR-RES ovarian = system: NCI/ADR-RES ovarian
SF-295 CNS = system: SF-295 CNS
HCC-2998 colon = system: HCC-2998 colon
UACC-257 melanoma = system: UACC-257 melanoma
SK-MEL-28 melanoma = system: SK-MEL-28 melanoma
RXF 393 renal = system: RXF 393 renal
HL-60(TB) leukemia = system: HL-60(TB) leukemia
HOP-92 NSCLC = system: HOP-92 NSCLC
OVCAR-8 ovarian = system: OVCAR-8 ovarian
SNB-75 CNS = system: SNB-75 CNS
UACC-62 melanoma = system: UACC-62 melanoma
NCI-H23 lung = system: NCI-H23 lung
OVCAR-3 ovarian = system: OVCAR-3 ovarian
SW-620 colon = system: SW-620 colon
HT29 colon = system: HT29 colon
BT-549 breast = system: BT-549 breast
U251 CNS = system: U251 CNS
UO-31 renal = system: UO-31 renal
MDA-MB-435 = system: MDA-MB-435
HCT-15 colon = system: HCT-15 colon
TK-10 renal = system: TK-10 renal
M14 melanoma = system: M14 melanoma
SN12C renal = system: SN12C renal
HCT-116 colon = system: HCT-116 colon
ACHN renal = system: ACHN renal
A549 NSCLC = system: A549 NSCLC
SF-539 CNS = system: SF-539 CNS
CAKI-1 renal = system: CAKI-1 renal
MCF7 breast = system: MCF7 breast
SF-268 CNS = system: SF-268 CNS
T-47D breast = system: T-47D breast
A498 renal = system: A498 renal
SK-OV-3 ovarian = system: SK-OV-3 ovarian
OVCAR-4 ovarian = system: OVCAR-4 ovarian
RPMI-8226 leukemia = system: RPMI-8226 leukemia
EKVX NSCLC = system: EKVX NSCLC
SK-MEL-2 melanoma = system: SK-MEL-2 melanoma
K-562 leukemia = system: K-562 leukemia

Cc1ccc(S(=O)(=O)c2c(COC(=O)c3cccc(C)c3)c(-c3ccccc3)nn2C)cc1
inactive: GI50 (MOLT-4 leukemia) > 100 µM | GI50 (HOP-62 NSCLC) > 100 µM | GI50 (PC-3 prostate) > 100 µM | GI50 (MDA-MB-231 breast) > 100 µM | GI50 (LOX IMVI melanoma) > 100 µM | GI50 (OVCAR-5 ovarian) > 100 µM | GI50 (786-0 renal) > 100 µM | GI50 (NCI-H226 lung) > 100 µM | GI50 (COLO 205 colon) > 100 µM | GI50 (MALME-3M melanoma) > 100 µM | GI50 (NCI-H460 lung) > 100 µM | GI50 (CCRF-CEM leukemia) > 100 µM | GI50 (KM12 colon) > 100 µM | GI50 (SR leukemia) > 100 µM | GI50 (IGROV1 ovarian) > 100 µM | GI50 (HS 578T breast) > 100 µM | GI50 (NCI-H522 lung) > 100 µM | GI50 (SK-MEL-5 melanoma) > 100 µM | GI50 (DU-145 prostate) > 100 µM | GI50 (SNB-19 CNS) > 100 µM | GI50 (NCI/ADR-RES ovarian) > 100 µM | GI50 (SF-295 CNS) > 100 µM | GI50 (HCC-2998 colon) > 100 µM | GI50 (UACC-257 melanoma) > 100 µM | GI50 (SK-MEL-28 melanoma) > 100 µM | GI50 (RXF 393 renal) > 100 µM | GI50 (HL-60(TB) leukemia) > 100 µM | GI50 (HOP-92 NSCLC) > 100 µM | GI50 (OVCAR-8 ovarian) > 100 µM | GI50 (SNB-75 CNS) > 100 µM | GI50 (UACC-62 melanoma) 8.41 µM | GI50 (NCI-H23 lung) > 100 µM | GI50 (OVCAR-3 ovarian) > 100 µM | GI50 (SW-620 colon) > 100 µM | GI50 (HT29 colon) > 100 µM | GI50 (BT-549 breast) > 100 µM | GI50 (U251 CNS) > 100 µM | GI50 (UO-31 renal) > 100 µM | GI50 (MDA-MB-435) > 100 µM | GI50 (HCT-15 colon) > 100 µM | GI50 (TK-10 renal) > 100 µM | GI50 (M14 melanoma) > 100 µM | GI50 (SN12C renal) > 100 µM | GI50 (HCT-116 colon) > 100 µM | GI50 (ACHN renal) > 100 µM | GI50 (A549 NSCLC) > 100 µM | GI50 (SF-539 CNS) > 100 µM | GI50 (CAKI-1 renal) > 100 µM | GI50 (MCF7 breast) > 100 µM | GI50 (SF-268 CNS) > 100 µM | GI50 (T-47D breast) 8.53 µM | GI50 (A498 renal) 29.5 µM | GI50 (SK-OV-3 ovarian) > 100 µM | GI50 (OVCAR-4 ovarian) > 100 µM | GI50 (RPMI-8226 leukemia) > 100 µM
> 100 µM: TGI (MOLT-4 leukemia) | TGI (HOP-62 NSCLC) | TGI (PC-3 prostate) | TGI (MDA-MB-231 breast) | TGI (LOX IMVI melanoma) | TGI (OVCAR-5 ovarian) | TGI (786-0 renal) | TGI (NCI-H226 lung) | TGI (COLO 205 colon) | TGI (MALME-3M melanoma) | TGI (NCI-H460 lung) | TGI (CCRF-CEM leukemia) | TGI (KM12 colon) | TGI (SR leukemia) | TGI (IGROV1 ovarian) | TGI (HS 578T breast) | TGI (NCI-H522 lung) | TGI (SK-MEL-5 melanoma) | TGI (DU-145 prostate) | TGI (SNB-19 CNS) | TGI (NCI/ADR-RES ovarian) | TGI (SF-295 CNS) | TGI (HCC-2998 colon) | TGI (UACC-257 melanoma) | TGI (SK-MEL-28 melanoma) | TGI (RXF 393 renal) | TGI (HL-60(TB) leukemia) | TGI (HOP-92 NSCLC) | TGI (OVCAR-8 ovarian) | TGI (SNB-75 CNS) | TGI (UACC-62 melanoma) | TGI (NCI-H23 lung) | TGI (OVCAR-3 ovarian) | TGI (SW-620 colon) | TGI (HT29 colon) | TGI (BT-549 breast) | TGI (U251 CNS) | TGI (UO-31 renal) | TGI (MDA-MB-435) | TGI (HCT-15 colon) | TGI (TK-10 renal) | TGI (M14 melanoma) | TGI (SN12C renal) | TGI (HCT-116 colon) | TGI (ACHN renal) | TGI (A549 NSCLC) | TGI (SF-539 CNS) | TGI (CAKI-1 renal) | TGI (MCF7 breast) | TGI (SF-268 CNS) | TGI (T-47D breast) | TGI (A498 renal) | TGI (SK-OV-3 ovarian) | TGI (OVCAR-4 ovarian) | TGI (RPMI-8226 leukemia)

Cc1c(Cl)cccc1C(=O)Nc1nc2c(s1)CN(C(=O)c1ccc(C(F)(F)F)cc1)CC2
> 40.9 µM: TGI (ACHN renal)
6.01 µM: TGI (SK-MEL-5 melanoma)
> 35.6 µM: TGI (U251 CNS)
28.8 µM: TGI (T-47D breast)
> 18.4 µM: TGI (HCT-116 colon)
> 37.7 µM: TGI (MCF7 breast)
20.9 µM: TGI (A498 renal)
> 33.3 µM: TGI (786-0 renal)
0.347 µM: TGI (OVCAR-3 ovarian)
> 23.1 µM: TGI (LOX IMVI melanoma)
active: GI50 (MOLT-4 leukemia) 0.193 µM | GI50 (HOP-62 NSCLC) 0.173 µM | GI50 (PC-3 prostate) 0.117 µM | GI50 (MDA-MB-231 breast) 0.344 µM | GI50 (LOX IMVI melanoma) 0.163 µM | GI50 (OVCAR-5 ovarian) 0.311 µM | GI50 (786-0 renal) 0.184 µM | GI50 (NCI-H226 lung) 0.157 µM | GI50 (COLO 205 colon) 0.164 µM | GI50 (NCI-H460 lung) 0.158 µM | GI50 (CCRF-CEM leukemia) 0.135 µM | GI50 (KM12 colon) 0.113 µM | GI50 (SR leukemia) 0.0294 µM | GI50 (IGROV1 ovarian) 0.177 µM | GI50 (HS 578T breast) 0.0699 µM | GI50 (NCI-H522 lung) 0.0252 µM | GI50 (SK-MEL-5 melanoma) 0.175 µM | GI50 (DU-145 prostate) 0.194 µM | GI50 (EKVX NSCLC) 0.285 µM | GI50 (SNB-19 CNS) 0.171 µM | GI50 (NCI/ADR-RES ovarian) 0.0418 µM | GI50 (SF-295 CNS) 0.0224 µM | GI50 (SK-MEL-2 melanoma) 0.202 µM | GI50 (HCC-2998 colon) 0.2 µM | GI50 (HL-60(TB) leukemia) 0.108 µM | GI50 (OVCAR-8 ovarian) 0.241 µM | GI50 (K-562 leukemia) 0.0261 µM | GI50 (SNB-75 CNS) 0.0814 µM | GI50 (UACC-62 melanoma) 0.13 µM | GI50 (NCI-H23 lung) 0.186 µM | GI50 (OVCAR-3 ovarian) 0.0583 µM | GI50 (SW-620 colon) 0.0656 µM | GI50 (HT29 colon) 0.0753 µM | GI50 (BT-549 breast) 0.331 µM | GI50 (U251 CNS) 0.145 µM | GI50 (MDA-MB-435) 0.0154 µM | GI50 (HCT-15 colon) 0.0295 µM | GI50 (M14 melanoma) 0.0483 µM | GI50 (SN12C renal) 0.284 µM | GI50 (HCT-116 colon) 0.101 µM | GI50 (ACHN renal) 0.267 µM | GI50 (A549 NSCLC) 0.124 µM | GI50 (SF-539 CNS) 0.0923 µM | GI50 (CAKI-1 renal) 0.0711 µM | GI50 (MCF7 breast) 0.0281 µM | GI50 (T-47D breast) 0.199 µM | GI50 (A498 renal) 0.064 µM | GI50 (SK-OV-3 ovarian) 0.227 µM | GI50 (RPMI-8226 leukemia) 0.198 µM
21.2 µM: TGI (HCT-15 colon)
> 50 µM: TGI (MOLT-4 leukemia) | TGI (HOP-62 NSCLC) | TGI (PC-3 prostate) | TGI (MDA-MB-231 breast) | TGI (OVCAR-5 ovarian) | TGI (CCRF-CEM leukemia) | TGI (KM12 colon) | TGI (SR leukemia) | TGI (IGROV1 ovarian) | TGI (HS 578T breast) | TGI (DU-145 prostate) | TGI (EKVX NSCLC) | TGI (SNB-19 CNS) | TGI (SF-295 CNS) | TGI (SK-MEL-2 melanoma) | TGI (HCC-2998 colon) | TGI (SK-MEL-28 melanoma) | TGI (K-562 leukemia) | TGI (SNB-75 CNS) | TGI (UACC-62 melanoma) | TGI (NCI-H23 lung) | TGI (SW-620 colon) | TGI (UO-31 renal) | TGI (TK-10 renal) | TGI (SN12C renal) | TGI (A549 NSCLC) | TGI (CAKI-1 renal) | TGI (SF-268 CNS) | TGI (SK-OV-3 ovarian) | TGI (OVCAR-4 ovarian)
0.0521 µM: TGI (MDA-MB-435)
2.33 µM: TGI (NCI-H522 lung)
2.31 µM: TGI (NCI/ADR-RES ovarian)
1.25 µM: TGI (HL-60(TB) leukemia)
17.8 µM: TGI (MALME-3M melanoma)
> 34.9 µM: TGI (RPMI-8226 leukemia)
22.9 µM: TGI (BT-549 breast)
0.762 µM: TGI (COLO 205 colon)
inactive: GI50 (MALME-3M melanoma) 0.515 µM | GI50 (UACC-257 melanoma) 2.36 µM | GI50 (SK-MEL-28 melanoma) 4.11 µM | GI50 (HOP-92 NSCLC) 0.877 µM | GI50 (UO-31 renal) 0.507 µM | GI50 (TK-10 renal) 0.934 µM | GI50 (SF-268 CNS) 0.565 µM | GI50 (OVCAR-4 ovarian) 0.663 µM
0.387 µM: TGI (SF-539 CNS)
9.2 µM: TGI (HT29 colon)
38.4 µM: TGI (M14 melanoma)
> 35.3 µM: TGI (OVCAR-8 ovarian)
36.4 µM: TGI (HOP-92 NSCLC)
23.9 µM: TGI (UACC-257 melanoma)
> 20.4 µM: TGI (NCI-H460 lung)
